Source: patent US20060154990A1, “Use of MEK inhibitors in treating abnormal cell growth” (AGOURON PHARMACEUTICALS, INC., priority 2004, published 2006)
Where “and” joins values, the source holds several entries; their conditions need not be identical. Equal entries are not always repeated. Marks after values point to notes of the source that are not given here.

Legend:
[1] = test system: Colo-205 human colon xenograft; test: Antitumor activity against human colon xenograft Colo-205
Procedure: A study was also carried out to explore the potential of an intermittent dosing strategy.

[2] = test system: Ki67 in tumor biopsies; test: Immunohistochemical analysis of Ki67 in paired tumor biopsies; format: in vivo, human
Procedure: The same biopsy specimens, as analyzed for pERK. staining described in Example 10, were also assessed for the amount of Ki67 detectable by immunohistochemistry. The Ki67 marker is considered an indicator of cell proliferation and thus reduction in Ki67 staining levels may be correlated with anti-tumor activity of therapeutic agents. Tissue sections from the paraffin-embedded biopsy tissues were pretreated with Heat-induced Epitope Retrieval (in this case, microwaving for 3 minutes) prior to the Ki67 detection procedure. The antibody used was the mouse monoclonal Ki67/MM1 manufactured by Novocastra Laboratories, Ltd. (catalog number: NCL-Ki67-MM1). […] Scoring of staining intensity was performed in same manner as for pERK assay, with H-scores generated for each section. For Ki67, only 1 section was assayed for each biopsy specimen.

[3] = test system: pERK in tumor biopsies; test: Immunohistochemical analysis of pERK in paired tumor biopsies; settings: for pERK Post-Treatment: H-score
Excerpt: The phosphorylation status of ERK can be assessed through antibody-based detection methods, utilizing phosphorylation site-specific antibodies. […] The biopsy tissues were paraffin-embedded following standard tissue processing. The antibody used for detection of pERK was the mouse monoclonal anti-MAP kinase (activated) antibody, manufactured by Sigma-Aldrich Co. (catalog number: M8159). This antibody is reacts specifically with the dually phosphorylated form of MAPK (both the ERK-1 and ERK-2 forms). Tissue sections prepared from the paraffin blocks were pretreated with Heat-induced Epitope Retrieval conditions (3 minutes at 120° C.) prior to the detection procedure. […] Staining intensity was grouped in categories from 0 to 3+, with 0 being little or no staining, and 3 being the most intense staining. […] For each biopsy specimen, 2 sections were analyzed and the average of these was taken for the pERK H-score. In addition to H-scores, the total % of positive cells was also recorded.

[4] = Colo-205, D19, 22, 25, 28, 31, 34, 37, 40, 43, 46, 18.8 mg/kg
[5] = Colo-205, D19, 22, 25, 28, 31, 34, 37, 40, 43, 46, 37.5 mg/kg
[6] = Colo-205, D19, 22, 25, 28, 31, 34, 37, 40, 43, 46, 75 mg/kg
[7] = Colo-205, D19, 22, 25, 28, 31, 34, 37, 40, 43, 46, 150 mg/kg
[8] = Colo-205, D19, 26, 33, 40, 47, 37.5 mg/kg
[9] = Colo-205, D19, 26, 33, 40, 47, 75 mg/kg
[10] = Colo-205, D19, 26, 33, 40, 47, 150 mg/kg
[11] = Colo-205, D19, 26, 33, 40, 47, 300 mg/kg (toxic)
[12] = Colo-205, D19-23, 26-30, 33-37, 40-44, 3.1 mg/kg
[13] = Colo-205, D19-23, 26-30, 33-37, 40-44, 6.3 mg/kg
[14] = Colo-205, D19-23, 26-30, 33-37, 40-44, 12.5 mg/kg
[15] = Colo-205, D19-23, 26-30, 33-37, 40-44, 25 mg/kg
[16] = Colo-205 colon, oral 25 mg/kg once a day for 14 days
[17] = 1 mg BID, melanoma, individual patients
[18] = 1 mg QD, breast, individual patient
[19] = 1 mg QD, melanoma, individual patients
[20] = 2 mg BID, colon, individual patient
[21] = 2 mg BID, lung, individual patient
[22] = 2 mg BID, melanoma, individual patients
[23] = 4 mg BID, lung, individual patient
[24] = 4 mg BID, melanoma, individual patient
[25] = 8 mg BID, breast, individual patient
[26] = 15 mg BID, breast, individual patient
[27] = 15 mg BID, melanoma, individual patient
[28] = 20 mg BID continuous, melanoma, individual patients
[29] = 20 mg BID, melanoma, individual patient
[30] = 30 mg BID, colon, individual patient
[31] = 30 mg BID, melanoma, individual patients

## O=C(NOC[C@H](O)CO)c1ccc(F)c(F)c1Nc1ccc(I)cc1F [Compound 1, N-[(R)-2,3-dihydroxy-propoxy]-3,4-difluoro-2-(2-fluoro-4-iodo-phenylamino)-benzamide]
[1]; [4]
  CR (complete response): 0/6
  Net Log10 kill: 0.1
  Nonspecific Deaths: 0/6
  PR (partial response): 0/6
  T − C: 29.5 days
  Tumor Free: 0/6
[1]; [5]
  CR (complete response): 0/6
  Net Log10 kill: 0.6
  Nonspecific Deaths: 0/6
  PR (partial response): 0/6
  T − C: 37.7 days
  Tumor Free: 0/6
[1]; [6]
  CR (complete response): 1/6
  Net Log10 kill: 0.8
  Nonspecific Deaths: 0/6
  PR (partial response): 2/6
  T − C: 41.5 days
  Tumor Free: 0/6
[1]; [7]
  CR (complete response): 2/5
  Net Log10 kill: 0.7
  Nonspecific Deaths: 1/6^h
  PR (partial response): 3/5
  T − C: 39.9 days
  Tumor Free: 0/5
[1]; [8]
  CR (complete response): 0/6
  Net Log10 kill: −0.8
  Nonspecific Deaths: 0/6
  PR (partial response): 0/6
  T − C: 13.1 days
  Tumor Free: 0/6
[1]; [9]
  CR (complete response): 0/6
  Net Log10 kill: −0.6
  Nonspecific Deaths: 0/6
  PR (partial response): 0/6
  T − C: 17.0 days
  Tumor Free: 0/6
[1]; [10]
  CR (complete response): 1/6
  Net Log10 kill: 0.4
  Nonspecific Deaths: 0/6
  PR (partial response): 1/6
  T − C: 35.4 days
  Tumor Free: 0/6
[1]; Colo-205, D19, 26, 33, 40, 47, 300 mg/kg
  Net Log10 kill: Toxic
[1]; [11]
  CR (complete response): 2/3
  Nonspecific Deaths: 3/6^i Toxic
  PR (partial response): 1/3 Toxic
  T − C: 60.3 Toxic days
  Tumor Free: 1/3 Toxic
[1]; [12]
  CR (complete response): 0/6
  Net Log10 kill: 0.7
  Nonspecific Deaths: 0/6
  PR (partial response): 2/6
  T − C: 37.8 days
  Tumor Free: 0/6
[1]; [13]
  CR (complete response): 1/6
  Net Log10 kill: 1.1
  Nonspecific Deaths: 0/6
  PR (partial response): 4/6
  T − C: 45.1 days
  Tumor Free: 0/6
[1]; [14]
  CR (complete response): 1/6
  Net Log10 kill: 1.1
  Nonspecific Deaths: 0/6
  PR (partial response): 4/6
  T − C: 45.9 days
  Tumor Free: 0/6
[1]; [15]
  CR (complete response): 6/6
  Net Log10 kill: 1.8
  Nonspecific Deaths: 0/6
  PR (partial response): 0/6
  T − C: 59.3 days
  Tumor Free: 2/6
[1]; Colo-205, D19-46, 3.1 mg/kg
  CR (complete response): 0/6
  Net Log10 kill: 1.0
  Nonspecific Deaths: 0/6
  PR (partial response): 5/6
  T − C: 45.5 days
  Tumor Free: 0/6
[1]; Colo-205, D19-46, 6.3 mg/kg
  CR (complete response): 2/6
  Net Log10 kill: 1.1
  Nonspecific Deaths: 0/6
  PR (partial response): 4/6
  T − C: 46.7 days
  Tumor Free: 0/6
[1]; Colo-205, D19-46, 12.5 mg/kg
  CR (complete response): 6/6
  Net Log10 kill: 2.3
  Nonspecific Deaths: 0/6
  PR (partial response): 0/6
  T − C: 70.1 days
  Tumor Free: 0/6
[1]; Colo-205, D19-46, 25 mg/kg
  CR (complete response): 5/6
  Net Log10 kill: 2.0
  Nonspecific Deaths: 0/6
  PR (partial response): 1/6
  T − C: 63.9 days
  Tumor Free: 1/6
[1]; [16]
  CR (complete responder): 4/10
  PR (partial responder): 5/10
  T − C: 10.8 days
  Tumor Free: 3/10
[2]; baseline Ki67 scores above 20, 2 mg BID to 30 mg BID (N=13)
  average Ki67 decline: 49%
[2]; baseline Ki67 scores above 20, all dose groups (N=18)
  average Ki67 decline: 39%
[2]; tumor biopsies Day 15, 1 mg QD to 30 mg BID (N=22)
  average Ki67 decline: 31%
[2]; tumor biopsies Day 15, 2 mg BID to 30 mg BID (N=19)
  average Ki67 decline: 46%
[3]; [17]
  pERK % Reduction from Baseline: −65% and 0%
  pERK Post-Treatment: 45 and 40
[3]; [18]
  pERK % Reduction from Baseline: −4%
  pERK Post-Treatment: 135
[3]; [19]
  pERK % Reduction from Baseline: −93% and 0%
  pERK Post-Treatment: 3 and 78
[3]; [20]
  pERK % Reduction from Baseline: 0%
  pERK Post-Treatment: 12
[3]; [21]
  pERK % Reduction from Baseline: −95%
  pERK Post-Treatment: 8
[3]; [22]
  pERK % Reduction from Baseline: −97% and −100%
  pERK Post-Treatment: 10 and 0
[3]; [23]
  pERK % Reduction from Baseline: −100%
  pERK Post-Treatment: 0
[3]; [24]
  pERK % Reduction from Baseline: −70%
  pERK Post-Treatment: 50
[3]; [25]
  pERK % Reduction from Baseline: −93%
  pERK Post-Treatment: 5
[3]; [26]
  pERK % Reduction from Baseline: −9%
  pERK Post-Treatment: 150
[3]; [27]
  pERK % Reduction from Baseline: −100%
  pERK Post-Treatment: 0
[3]; [28]
  pERK % Reduction from Baseline: −100% and −72% and −18%
  pERK Post-Treatment: 0 and 23 and 45
[3]; [29]
  pERK % Reduction from Baseline: −100%
  pERK Post-Treatment: 1
[3]; [30]
  pERK % Reduction from Baseline: −91%
  pERK Post-Treatment: 3
[3]; [31]
  pERK % Reduction from Baseline: −4% and −87%
  pERK Post-Treatment: 70 and 15
